This is an account of results in patent US20140356863A1, “METHODS FOR DETERMINING THE SUSCEPTIBILITY OF A VIRUS TO AN ATTACHMENT INHIBITOR” (BRISTOL-MYERS SQUIBB COMPANY, priority 2011, published 2014).

Assay [1] has as its system HIV-1 NL4-3. Put plainly: susceptibility of HIV-1 strains to an attachment inhibitor (IC50, inhibition of virus replication). Format: cell-based. Conditions: Human immunodeficiency virus 1, NL43; HIV-1 laboratory strain NL4-3. An excerpt: (§1) As used herein, “ICn” refers to Inhibitory Concentration. It is the concentration of drug in the patient's blood or in vitro needed to suppress the reproduction of a disease-causing virus (such as HIV) by n %. Thus, “IC50” refers to the concentration of an anti-viral agent at which virus replication is inhibited by 50% of the level observed in the absence of the drug.
(§2) Two laboratory strains of HIV-1 were used in this assay.

Assay [2] deals with HIV-1 RF strain. The assay is described as above. Format: cell-based. As to conditions: Human immunodeficiency virus 1; HIV-1 laboratory strain RF.
Description: as §1, §2

Assay [3] has as its system HIV-1 NL4-3 binding to sCD4-Fc. In words: immunoassay: virus capture by sCD4-Fc on protein G beads, quantitated by p24 ELISA. As to conditions: attachment inhibitor 0.5 uM, 15 min room temperature, FIG. 2. As to the method: (§3) Two laboratory strains of HIV-1 were used in this assay, NL4-3, which is susceptible to the attachment inhibitor, the other is RF, which is insensitive to the action of the attachment inhibitor. The amount of virus present with and without attachment inhibitor (AI) is quantitated by a p24 ELISA.
(§4) Virus stock was diluted to 1×10^4 TCID50 per ml in RPMI media with 10% fetal bovine serum (FBS). The attachment inhibitor (or DMSO) was added to a final concentration of 0.5 uM and the mixture incubated for 15 min at room temperature. Eighty microliters of sCD4-Fc (a recombinant protein containing the gp120 binding domain of CD4 connected to an immunoglobulin […]) at 5Oug/ml was added and incubated for an additional 30 min, with gentle rocking. Twenty microliters of protein G SEPHAROSE® beads (binding capacity of 200 ug IgG) was added and rocked at 4° C. for an additional 60 min. Unbound virus was removed by washing the beads 4 times with excess PBS. Virus captured on the beads was lysed with 0.5% Triton X-100 and the beads removed by centrifugation. The amount of virus present in the supernatant is quantitated by a p24 ELISA, according to the manufacturer's instructions (PerkinElmer NEK-050).
For orientation: An ELISA detects its analyte on a solid surface through an enzyme-linked reagent.

Assay [4] concerns HIV-1 RF strain binding to sCD4-Fc. Described as above. As to conditions: attachment inhibitor 0.5 uM, 15 min room temperature, FIG. 2. As to the method: as §3, §4

Structures are written as SMILES.

For the compound `COc1cnc(-n2cnc(C)n2)c2[nH]cc(C(=O)C(=O)N3CCN(C(=O)c4ccccc4)CC3)c12` [attachment inhibitor, 1-(4-benzoyl-piperazin-1-yl)-2-[4-methoxy-7-(3-methyl-[1,2,4]triazol-1-yl)-1H-pyrralo[2,3-c]pyridine-3-yl]-ethane-1,2-dione], the values for the half-inhibitory concentration (IC50) in assay [1] and in assay [2] were 2.2 ± 0.6 nM and greater than 2000 nM, respectively. Also, the “amount of virus captured by sCD4-Fc (p24 ELISA) with attachment inhibitor versus DMSO” value in assay [3] is on record as “much less than when DMSO is used”; in assay [4], “no significant difference”.

As a reminder, the IC50 is the concentration that inhibits the measured activity by half. The low end stands for higher potency, the high end for lower potency.
